Measured values: ChEMBL document CHEMBL5316300, “Discovery of TP0597850: A Selective, Chemically Stable, and Slow Tight-Binding Matrix Metalloproteinase-2 Inhibitor with a Phenylbenzamide-Pentapeptide Hybrid Scaffold” (J Med Chem, 2023)
Square brackets hold non-standard residues; d marks the D form. Peptide text beside a SMILES is read from it. * marks the point of attachment. Benzoyl(4-OPh(4-CONH2)) = NC(=O)c1ccc(Oc2ccc(C(=O)*)cc2)cc1; NMeI = CC[C@H](C)[C@H](NC)C(=O)O; NMeE = CN[C@@H](CCC(=O)O)C(=O)O; β3hP = O=C(O)C[C@@H]1CCCN1; Dab = NCC[C@H](N)C(=O)O; Ava = NCCCCC(=O)O

Experiments:
[1] = biological target: T1, Collagenase 3 (Homo sapiens, UniProt P45452); assay: Inhibition of human recombinant MMP13 using MOCAc-Lys-Pro-Leu-Gly-Leu-A2pr(Dnp)-Ala-Arg-N2 as substrate preincubated for 15 mins followed by substrate addition and measured after 120 mins by fluorescence based assay
[2] = biological target: T2, MMP-2/MMP-13 (Homo sapiens) (UniProt P08253+P45452); assay: Selectivity ratio of IC50 for recombinant human MMP13 to IC50 for recombinant human MMP2; assay type: protein assay
[3] = biological target: T2, MMP-2/MMP-13 (Homo sapiens); assay: Selectivity ratio of Ki for recombinant human MMP13 to Ki for recombinant human MMP2; assay type: protein assay
[4] = biological target: T3, 72 kDa type IV collagenase (Homo sapiens, UniProt P08253); assay: Binding affinity to human MMP2 assessed as dissociative half-life
Target sequence in this assay (P08253 110-660 limits assumed): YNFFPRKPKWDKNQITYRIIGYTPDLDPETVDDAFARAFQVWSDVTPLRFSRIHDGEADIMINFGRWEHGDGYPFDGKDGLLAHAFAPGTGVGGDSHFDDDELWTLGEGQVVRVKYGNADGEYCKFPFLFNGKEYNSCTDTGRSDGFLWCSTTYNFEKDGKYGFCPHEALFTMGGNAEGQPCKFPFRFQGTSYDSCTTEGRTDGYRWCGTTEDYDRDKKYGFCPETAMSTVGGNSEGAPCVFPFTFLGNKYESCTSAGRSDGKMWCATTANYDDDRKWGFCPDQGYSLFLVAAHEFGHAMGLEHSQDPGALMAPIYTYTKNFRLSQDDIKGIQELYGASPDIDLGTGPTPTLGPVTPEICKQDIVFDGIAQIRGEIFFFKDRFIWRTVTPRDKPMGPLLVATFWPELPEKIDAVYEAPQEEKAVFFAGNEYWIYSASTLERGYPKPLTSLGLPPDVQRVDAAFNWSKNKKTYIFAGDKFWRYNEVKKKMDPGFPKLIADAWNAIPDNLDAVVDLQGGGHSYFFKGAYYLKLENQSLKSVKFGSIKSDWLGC

[5] = biological target: T4, Matrilysin (Homo sapiens, UniProt P09237); assay: Inhibition of human recombinant MMP7 using MOCAc-Lys-Pro-Leu-Gly-Leu-A2pr(Dnp)-Ala-Arg-N2 as substrate preincubated for 15 mins followed by substrate addition and measured after 120 mins by fluorescence based assay
T4 sequence (P09237 whole entry): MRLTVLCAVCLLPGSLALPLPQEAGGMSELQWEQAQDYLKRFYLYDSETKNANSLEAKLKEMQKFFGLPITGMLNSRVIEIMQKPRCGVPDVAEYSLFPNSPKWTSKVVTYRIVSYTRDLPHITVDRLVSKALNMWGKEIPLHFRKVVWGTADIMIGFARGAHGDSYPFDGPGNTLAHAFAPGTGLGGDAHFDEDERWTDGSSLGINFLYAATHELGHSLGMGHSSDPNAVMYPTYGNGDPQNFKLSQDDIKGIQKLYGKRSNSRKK

[6] = biological target: T5, Macrophage metalloelastase (Homo sapiens, UniProt P39900); assay: Inhibition of human recombinant MMP12 using MOCAc-Lys-Pro-Leu-Gly-Leu-A2pr(Dnp)-Ala-Arg-N2 as substrate preincubated for 10 to 15 mins followed by substrate addition and measured after 60 to 120 mins by fluorescence based assay; details: read-out: IC50
[7] = biological target: MMP-2/MMP-9 (Homo sapiens) (UniProt P08253+P14780); assay: Selectivity ratio of Ki for recombinant human MMP9 to Ki for recombinant human MMP2; assay type: protein assay
[8] = biological target: T6, Interstitial collagenase (Homo sapiens, UniProt P03956); assay: Inhibition of human recombinant MMP1 using MOCAc-Lys-Pro-Leu-Gly-Leu-A2pr(Dnp)-Ala-Arg-N2 as substrate preincubated for 15 mins followed by substrate addition and measured after 120 mins by fluorescence based assay
T6 sequence (P03956 whole entry): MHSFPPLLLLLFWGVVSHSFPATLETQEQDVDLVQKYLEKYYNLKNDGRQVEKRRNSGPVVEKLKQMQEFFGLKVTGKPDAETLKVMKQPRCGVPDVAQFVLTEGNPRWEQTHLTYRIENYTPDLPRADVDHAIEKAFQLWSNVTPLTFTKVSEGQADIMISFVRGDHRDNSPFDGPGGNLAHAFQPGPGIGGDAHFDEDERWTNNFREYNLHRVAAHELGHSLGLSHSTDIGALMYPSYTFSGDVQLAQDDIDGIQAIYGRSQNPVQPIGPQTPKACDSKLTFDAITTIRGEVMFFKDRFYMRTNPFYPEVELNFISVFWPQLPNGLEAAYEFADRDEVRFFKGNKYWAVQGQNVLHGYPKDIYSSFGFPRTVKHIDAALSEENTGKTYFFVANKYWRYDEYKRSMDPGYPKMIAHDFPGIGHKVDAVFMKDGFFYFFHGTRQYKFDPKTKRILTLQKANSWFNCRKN

[9] = species on record: Homo sapiens; assay: Selectivity ratio of IC50 for recombinant human MMP12 to IC50 for recombinant human MMP2
[10] = Metabolic stability in human serum assessed as parent compound remaining measured for 4 hrs; assay type: ADME, cell-free; details: read-out: Stability
[11] = biological target: Stromelysin-1 (Homo sapiens, UniProt P08254); assay: Inhibition of human recombinant MMP3 using MOCAc-Lys-Pro-Leu-Gly-Leu-A2pr(Dnp)-Ala-Arg-N2 as substrate preincubated for 15 mins followed by substrate addition and measured after 120 mins by fluorescence based assay
[12] = Chemical stability of the compound in phosphate buffer at pH 7.4 assessed as residual rate incubated for 2 weeks by HPLC analysis; assay type: physicochemical; details: read-out: Stability
[13] = biological target: MMP-1/MMP-2 (Homo sapiens) (UniProt P08253+P03956); assay: Selectivity ratio of Ki for recombinant human MMP1 to Ki for recombinant human MMP2; assay type: protein assay
[14] = biological target: Matrix metalloproteinase-14 (Homo sapiens, UniProt P50281); assay: Inhibition of human recombinant MMP14 using MOCAc-Lys-Pro-Leu-Gly-Leu-A2pr(Dnp)-Ala-Arg-N2 as substrate preincubated for 15 mins followed by substrate addition and measured after 120 mins by fluorescence based assay
[15] = species on record: Homo sapiens; assay: Selectivity ratio of Ki for recombinant human MMP3 to Ki for recombinant human MMP2
[16] = Chemical stability of the compound in phosphate buffer at pH 9 assessed as residual rate incubated for 2 weeks by HPLC analysis; assay type: physicochemical; details: read-out: Stability
[17] = biological target: T3, 72 kDa type IV collagenase; assay: Inhibition of recombinant human MMP2 using MOCAc-Lys-Pro-Leu-Gly-Leu-A2pr(Dnp)-Ala-Arg-N2 as substrate preincubated for 10 to 15 mins followed by substrate addition and measured after 60 to 120 mins by fluorescence based assay
Target sequence in this assay (P08253 whole entry): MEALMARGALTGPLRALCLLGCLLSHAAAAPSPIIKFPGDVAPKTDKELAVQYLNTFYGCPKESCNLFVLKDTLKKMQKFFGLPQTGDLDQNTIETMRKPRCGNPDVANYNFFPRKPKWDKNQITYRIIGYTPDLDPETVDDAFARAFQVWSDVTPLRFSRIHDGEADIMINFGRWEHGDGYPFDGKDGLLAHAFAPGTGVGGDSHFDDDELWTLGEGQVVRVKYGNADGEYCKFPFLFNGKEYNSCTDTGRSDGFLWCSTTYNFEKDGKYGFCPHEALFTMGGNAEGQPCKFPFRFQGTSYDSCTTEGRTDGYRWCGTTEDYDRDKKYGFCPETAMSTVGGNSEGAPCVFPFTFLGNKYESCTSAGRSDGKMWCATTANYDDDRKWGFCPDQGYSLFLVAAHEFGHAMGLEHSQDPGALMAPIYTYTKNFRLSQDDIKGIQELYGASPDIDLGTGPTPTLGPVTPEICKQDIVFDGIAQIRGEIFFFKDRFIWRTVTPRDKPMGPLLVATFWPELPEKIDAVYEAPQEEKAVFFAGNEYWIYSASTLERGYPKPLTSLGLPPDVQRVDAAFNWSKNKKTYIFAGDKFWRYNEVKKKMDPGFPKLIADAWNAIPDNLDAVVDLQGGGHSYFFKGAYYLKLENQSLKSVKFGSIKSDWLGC

[18] = biological target: Matrix metalloproteinase-9 (Homo sapiens, UniProt P14780); assay: Inhibition of human recombinant MMP9 using MOCAc-Lys-Pro-Leu-Gly-Leu-A2pr(Dnp)-Ala-Arg-N2 as substrate preincubated for 15 mins followed by substrate addition and measured after 120 mins by fluorescence based assay
[19] = biological target: MMP-2/MMP-14 (Homo sapiens) (UniProt P50281+P08253); assay: Selectivity ratio of Ki for recombinant human MMP14 to Ki for recombinant human MMP2; assay type: protein assay
[20] = species on record: Homo sapiens; assay: Selectivity ratio of Ki for recombinant human MMP8 to Ki for recombinant human MMP2
[21] = biological target: T5, Macrophage metalloelastase; assay: Inhibition of human recombinant MMP12 using MOCAc-Lys-Pro-Leu-Gly-Leu-A2pr(Dnp)-Ala-Arg-N2 as substrate preincubated for 15 mins followed by substrate addition and measured after 120 mins by fluorescence based assay
[22] = biological target: T3, 72 kDa type IV collagenase; assay: Inhibition of human recombinant MMP2 using MOCAc-Lys-Pro-Leu-Gly-Leu-A2pr(Dnp)-Ala-Arg-N2 as substrate preincubated for 5 mins followed by substrate addition and measured after 120 mins by fluorescence based assay
Target sequence in this assay (P08253 whole entry): as above

[23] = Chemical stability of the compound in phosphate buffer at pH 4 assessed as residual rate incubated for 2 weeks by HPLC analysis; assay type: physicochemical; details: read-out: Stability
[24] = biological target: T3, 72 kDa type IV collagenase; assay: Inhibition of human recombinant MMP2 using MOCAc-Lys-Pro-Leu-Gly-Leu-A2pr(Dnp)-Ala-Arg-N2 as substrate preincubated for 15 mins followed by substrate addition and measured after 120 mins by fluorescence based assay
Target sequence in this assay (P08253 whole entry): as above

[25] = species on record: Homo sapiens; assay: Selectivity ratio of Ki for recombinant human MMP12 to Ki for recombinant human MMP2
[26] = biological target: Neutrophil collagenase (Homo sapiens, UniProt P22894); assay: Inhibition of human recombinant MMP8 using MOCAc-Lys-Pro-Leu-Gly-Leu-A2pr(Dnp)-Ala-Arg-N2 as substrate preincubated for 15 mins followed by substrate addition and measured after 120 mins by fluorescence based assay
[27] = biological target: T1, Collagenase 3; assay: Inhibition of human recombinant MMP13 using MOCAc-Lys-Pro-Leu-Gly-Leu-A2pr(Dnp)-Ala-Arg-N2 as substrate preincubated for 10 to 15 mins followed by substrate addition and measured after 60 to 120 mins by fluorescence based assay
[28] = biological target: T3, 72 kDa type IV collagenase; assay: Inhibition of MMP2 (unknown origin)
Target sequence in this assay (P08253 whole entry): as above

T5 sequence (P39900 whole entry): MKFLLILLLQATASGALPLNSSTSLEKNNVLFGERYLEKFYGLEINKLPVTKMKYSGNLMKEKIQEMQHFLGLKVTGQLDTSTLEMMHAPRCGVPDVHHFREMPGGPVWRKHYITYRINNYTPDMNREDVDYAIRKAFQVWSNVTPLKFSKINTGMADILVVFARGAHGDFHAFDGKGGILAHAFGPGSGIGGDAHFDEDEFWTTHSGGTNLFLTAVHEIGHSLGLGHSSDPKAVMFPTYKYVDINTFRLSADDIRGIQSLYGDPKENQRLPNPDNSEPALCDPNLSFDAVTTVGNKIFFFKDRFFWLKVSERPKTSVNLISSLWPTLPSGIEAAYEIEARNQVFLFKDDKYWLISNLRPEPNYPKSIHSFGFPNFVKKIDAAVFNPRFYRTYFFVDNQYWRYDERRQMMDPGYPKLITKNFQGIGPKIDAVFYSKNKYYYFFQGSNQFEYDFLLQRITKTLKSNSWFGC
T2 sequence (P08253 whole entry, looked up, other chains not shown): as the sequence (P08253 whole entry) above
Matrix metalloproteinase-9, sequence (P14780 whole entry): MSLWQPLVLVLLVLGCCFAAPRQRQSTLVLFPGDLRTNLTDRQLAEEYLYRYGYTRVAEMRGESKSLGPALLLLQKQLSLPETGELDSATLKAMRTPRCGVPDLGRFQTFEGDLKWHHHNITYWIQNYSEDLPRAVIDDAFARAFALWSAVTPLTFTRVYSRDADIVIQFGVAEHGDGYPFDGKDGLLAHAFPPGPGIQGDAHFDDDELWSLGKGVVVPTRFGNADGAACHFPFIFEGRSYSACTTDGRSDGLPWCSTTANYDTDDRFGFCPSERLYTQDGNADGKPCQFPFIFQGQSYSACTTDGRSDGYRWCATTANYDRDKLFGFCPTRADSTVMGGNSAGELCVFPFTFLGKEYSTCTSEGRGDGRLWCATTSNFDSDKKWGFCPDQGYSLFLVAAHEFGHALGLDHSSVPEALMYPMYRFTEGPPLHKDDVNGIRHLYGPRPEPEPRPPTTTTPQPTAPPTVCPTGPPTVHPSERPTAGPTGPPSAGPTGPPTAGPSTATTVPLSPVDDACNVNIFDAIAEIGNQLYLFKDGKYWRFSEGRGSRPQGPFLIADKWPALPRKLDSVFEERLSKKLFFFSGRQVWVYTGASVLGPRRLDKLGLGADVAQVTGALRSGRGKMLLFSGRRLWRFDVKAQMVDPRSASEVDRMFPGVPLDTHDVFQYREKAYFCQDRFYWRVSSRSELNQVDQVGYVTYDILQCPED
Stromelysin-1, sequence (P08254 whole entry): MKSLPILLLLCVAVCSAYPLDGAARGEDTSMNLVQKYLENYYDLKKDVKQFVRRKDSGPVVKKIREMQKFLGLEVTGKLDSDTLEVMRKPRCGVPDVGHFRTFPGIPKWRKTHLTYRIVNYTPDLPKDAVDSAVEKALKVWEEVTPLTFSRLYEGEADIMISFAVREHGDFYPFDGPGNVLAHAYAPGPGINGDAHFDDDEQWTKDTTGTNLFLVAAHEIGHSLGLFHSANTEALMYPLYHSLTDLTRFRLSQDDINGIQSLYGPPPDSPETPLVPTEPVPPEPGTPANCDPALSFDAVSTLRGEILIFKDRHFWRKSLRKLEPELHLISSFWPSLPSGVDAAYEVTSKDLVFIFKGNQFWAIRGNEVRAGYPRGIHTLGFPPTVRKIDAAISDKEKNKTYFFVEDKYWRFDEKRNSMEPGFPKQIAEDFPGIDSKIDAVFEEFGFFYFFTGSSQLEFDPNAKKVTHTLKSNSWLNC
MMP-1/MMP-2 (Homo sapiens), sequence (P08253 whole entry, looked up, one chain of several): as the sequence (P08253 whole entry) above
Neutrophil collagenase, sequence (P22894 whole entry): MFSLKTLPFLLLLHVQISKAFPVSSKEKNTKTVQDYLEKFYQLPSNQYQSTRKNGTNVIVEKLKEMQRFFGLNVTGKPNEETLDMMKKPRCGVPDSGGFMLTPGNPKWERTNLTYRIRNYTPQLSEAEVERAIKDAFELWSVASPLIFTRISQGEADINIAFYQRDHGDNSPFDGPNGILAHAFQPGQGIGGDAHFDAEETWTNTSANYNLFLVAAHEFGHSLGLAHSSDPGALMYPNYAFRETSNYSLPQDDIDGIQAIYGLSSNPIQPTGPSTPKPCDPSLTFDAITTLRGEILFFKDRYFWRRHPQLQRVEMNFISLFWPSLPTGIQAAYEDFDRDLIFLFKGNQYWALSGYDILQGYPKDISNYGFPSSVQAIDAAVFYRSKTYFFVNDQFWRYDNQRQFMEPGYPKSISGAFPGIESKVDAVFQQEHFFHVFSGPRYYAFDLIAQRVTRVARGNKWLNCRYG

In the case of `CC(C)C[C@H](NC(=O)[C@@H]1C[C@H](N)CN1C(=O)CC[C@@H](NS(=O)(=O)c1ccc(NC(=O)c2ccc(C(N)=O)cc2)cc1)C(=O)O)C(=O)N(C)[C@@H](CCC(=O)O)C(=O)NCCCCC(N)=O`, the Ki [1] is reported as 110 nM, the Ratio IC50 [2] is reported as 1100 and the Ratio Ki [3] is reported as 3200. It also gave a T1/2 [4] of 4.42 h, a Ki [5] of 150000 nM and an IC50 [6] of 250 nM. For the same molecule, the Ratio Ki [7] was 56000, the IC50 [8] was 270000 nM and the Ratio IC50 [9] was 1100. It also gave a remaining at 4 h [10] of 93.1%, a Ki [11] of 4900 nM and a remaining at 336 h [12] of 99%. For the same molecule, the Ratio Ki [13] was 7.9e+06, the Ki [14] was 68 nM and the Ratio Ki [15] was 140000. The remaining at 336 h [16] was 98.1%, the Ki [17] was 0.034 nM and the Ki [18] was 1900 nM. It also gave a Ratio Ki [19] of 2000, a Ratio Ki [20] of 53000 and a Ki [21] of 170 nM. For the same molecule, the IC50 [22] was 0.034 nM, the remaining at 336 h [23] was 98.7% and the IC50 [24] was 0.22 nM. It also gave a Ratio Ki [25] of 5000 and an IC50 [26] of 1800 nM.
`CC[C@H](C)[C@@H](C(=O)NCCCCC(N)=O)N(C)C(=O)[C@H](CC(C)C)NC(=O)[C@H](CCN)NC(=O)CC[C@@H](NS(=O)(=O)c1ccc(NC(=O)c2ccc(C(N)=O)cc2)cc1)C(=O)O` showed a Ratio IC50 [2] of 3100, an IC50 [6] of 410 nM and a Ratio IC50 [9] of 1900. It also gave a remaining at 336 h [12] of 88.8%, an IC50 [27] of 690 nM and a remaining at 336 h [16] of 47.6%. It also gave an IC50 [17] of 0.22 nM and a remaining at 336 h [23] of 98.3%.
`CC[C@H](C)[C@@H](C(=O)N1CCC[C@H]1CC(N)=O)N(C)C(=O)[C@H](CC(C)C)NC(=O)[C@H](CCN)NC(=O)[C@H](CC(=O)O)NC(=O)[C@H](CCC(=O)O)NC(=O)CCCCNC(=O)c1ccc(Oc2ccc(C(N)=O)cc2)cc1` ({Benzoyl(4-OPh(4-CONH2))-Ava}-ED[Dab]L[NMeI][β3hP]-NH2) showed an IC50 [28] of 0.18 nM.
Work on `CC(C)C[C@H](NC(=O)[C@H](CCN)NC(=O)[C@H](CC(=O)O)NC(=O)[C@H](CCC(=O)O)NC(=O)CCCCNC(=O)c1ccc(Oc2ccc(C(N)=O)cc2)cc1)C(=O)N(C)[C@@H](CCC(=O)O)C(=O)N1CCC[C@H]1CC(N)=O` ({Benzoyl(4-OPh(4-CONH2))-Ava}-ED[Dab]L[NMeE][β3hP]-NH2) yielded a remaining at 336 h [12] of 89%, a remaining at 336 h [16] of 87.7% and a remaining at 336 h [23] of 69.5%.
